Test results published in patent US20240041042A1, “1-(PYRIDYL)-5-AZINYLPYRAZOLE DERIVATIVES, AND THEIR USE FOR CONTROL OF UNDESIRED PLANT GROWTH” (Bayer Aktiengesellschaft, priority 2020, published 2024).
Read-outs that look alike come from different tables or passages of the source.

Key:
Assay type in all cases: in vivo
[1] = tested on: Brassica napus (BRSNW); conditions: crop plant compatibility, in comparison to untreated controls
Summary of the method: (§1)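 Crop injury rated visually in percent against untreated plants roughly 3 weeks after treatment (0% no effect, 100% plants dead). Compounds, as WP or EC with 0.5% additive in 600 l/ha water, were applied to the covering soil right after sowing; greenhouse growth. Suffixes a, b, c denote different dosages.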

[2] = tested on: Glycine max (GLXMA); conditions: pre-emergence, 80 g/ha, crop plant compatibility, in comparison to untreated controls
Summary of the method: as §1

[3] = tested on: Oryza sativa (ORYSA); conditions: pre-emergence, crop plant compatibility, in comparison to untreated controls
Summary of the method: as §1

[4] = tested on: Zea mays (ZEAMX); conditions: pre-emergence, crop plant compatibility, in comparison to untreated controls
Summary of the method: as §1

[5] = tested on: Pharbitis purpurea (PHBPU); assay: Post-emergence herbicidal action against PHBPU
Summary of the method: (§2)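 Doses of 320 g/ha or lower, suffixes a, b and c marking different dosages, were applied post-emergence at the one-leaf stage in 600 l/ha water with 0.5% additive. Damage was assessed visually after about 3 weeks in the greenhouse.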

[6] = tested on: Oryza sativa (ORYSA); conditions: crop plant compatibility, effect in comparison to untreated controls
Summary of the method: (§3)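 Percent effect on the crop was judged by eye against untreated controls, where 0% means like control and 100% means dead plants. Plants had been sprayed post-emergence at the one-leaf stage and then kept under optimum greenhouse conditions for about 3 weeks.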

[7] = tested on: Triticum aestivum (TRZAS); conditions: crop plant compatibility, 80 g/ha, effect vs untreated controls
Summary of the method: as §3

[8] = tested on: Zea mays (ZEAMX); conditions: crop plant compatibility, effect vs untreated controls
Summary of the method: as §3

[9] = tested on: Amaranthus retroflexus (AMARE); assay: Post-emergence herbicidal action against AMARE
Summary of the method: as §2

[10] = tested on: Lolium rigidum (LOLRI); assay: Post-emergence herbicidal action against LOLRI; conditions: dosage 320 g/ha
Summary of the method: as §2

[11] = tested on: Setaria viridis (SETVI); assay: Post-emergence herbicidal action against SETVI
Summary of the method: as §2

[12] = tested on: Abutilon theophrasti (ABUTH); assay: Pre-emergence herbicidal action against ABUTH; conditions: Dosage column 320 g/ha (title prints 3200 g/ha); scored visually after about 3 weeks; 100% = plants have died
Summary of the method: (§4)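 Seeds sown in pots and covered with soil; WP or EC formulations sprayed onto the soil surface at 600 l/ha water with 0.5% additive, at 320 g/ha or lower. Greenhouse growth for about 3 weeks, then visual scoring as % effect against untreated controls (100% = plants dead).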

[13] = tested on: Alopecurus myosuroides (ALOMY); assay: Pre-emergence herbicidal action against ALOMY; conditions: 320 g/ha; scored visually after about 3 weeks; 100% = plants have died
Summary of the method: as §4

[14] = tested on: Amaranthus retroflexus (AMARE); assay: Pre-emergence herbicidal action against AMARE; conditions: visual scoring after about 3 weeks vs untreated controls
Summary of the method: as §4

[15] = tested on: Avena fatua (AVEFA); assay: Pre-emergence herbicidal action against AVEFA; conditions: 320 g/ha, visual scoring after about 3 weeks vs untreated controls
Summary of the method: as §4

[16] = tested on: Echinochloa crus-galli (ECHCG); assay: Pre-emergence herbicidal action against ECHCG; conditions: dosage 320 g/ha
Summary of the method: as §4

[17] = tested on: Lolium rigidum (LOLRI); assay: Pre-emergence herbicidal action against LOLRI; conditions: dosage 320 g/ha
Summary of the method: as §4

[18] = tested on: Matricaria inodora (MATIN); assay: Pre-emergence herbicidal action against MATIN
Summary of the method: as §4

[19] = tested on: Polygonum convolvulus (POLCO); assay: Pre-emergence herbicidal action against POLCO
Summary of the method: as §4

[20] = tested on: Setaria viridis (SETVI); assay: Pre-emergence herbicidal action against SETVI; conditions: dosage 320 g/ha
Summary of the method: as §4

[21] = tested on: Viola tricolor (VIOTR); assay: Pre-emergence herbicidal action against VIOTR
Summary of the method: as §4

[22] = tested on: Triticum aestivum (TRZAS); conditions: pre-emergence, 80 g/ha, crop plant compatibility, in comparison to untreated controls
Summary of the method: as §1

[23] = tested on: Abutilon theophrasti (ABUTH); assay: Post-emergence herbicidal action against ABUTH; conditions: visual rating about 3 weeks after treatment vs untreated controls (100% = plants have died, 0% = like control plants)
Summary of the method: as §2

[24] = tested on: Avena fatua (AVEFA); assay: Post-emergence herbicidal action against AVEFA; conditions: 320 g/ha, visual rating about 3 weeks after treatment
Summary of the method: as §2

[25] = tested on: Echinochloa crus-galli (ECHCG); assay: Post-emergence herbicidal action against ECHCG
Summary of the method: as §2

[26] = tested on: Matricaria inodora (MATIN); assay: Post-emergence herbicidal action against MATIN
Summary of the method: as §2

[27] = tested on: Polygonum convolvulus (POLCO); assay: Post-emergence herbicidal action against POLCO; conditions: dosage 320 g/ha
Summary of the method: as §2

[28] = tested on: Verconica persica (VERPE); assay: Post-emergence herbicidal action against VERPE; conditions: 320 g/ha, VERPE
Summary of the method: as §2

[29] = tested on: Viola tricolor (VIOTR); assay: Post-emergence herbicidal action against VIOTR
Summary of the method: as §2

[30] = tested on: Alopecurus myosuroides (ALOMY); assay: Post-emergence herbicidal action against ALOMY; conditions: 320 g/ha, visual rating about 3 weeks after treatment vs untreated controls (100% = plants have died, 0% = like control plants)
Summary of the method: as §2

[31] = 320 g/ha, visual rating about 3 weeks after treatment

With `COc1cccnc1-n1nc(OCC(=O)O)c(Cl)c1-c1ccc(F)nc1` [Example I-329] the “Pre-emergence action against BRSNW in %” value ([1]; 80 g/ha) was 0%, the “Pre-emergence action against GLXMA in %” value [2] was 0% and the “Pre-emergence action against ORYSA in %” value ([3]; 80 g/ha) was 0%. The “Pre-emergence action against ORYSA in %” value ([3]; 320 g/ha) was 20%, the “Pre-emergence action against ZEAMX in %” value ([4]; 80 g/ha) was 0% and the “Pre-emergence action against ZEAMX in %” value ([4]; 320 g/ha) was 10%. The “Post-emergence action against PHBPU in %” value ([5]; dosage 320 g/ha) was 80%, the “Post-emergence action against ORYSA in %” value ([6]; 80 g/ha) was 0% and the “Post-emergence action against ORYSA in %” value ([6]; 320 g/ha) was 0%. The “Post-emergence action against TRZAS in %” value [7] was 0%, the “Post-emergence action against ZEAMX in %” value ([8]; 80 g/ha) was 0% and the “Post-emergence action against ZEAMX in %” value ([8]; 320 g/ha) was 0%.

For `CCOC(=O)COc1nn(-c2ncccc2OC)c(-c2ccc(F)nc2)c1Br` [Example I-371], the “Pre-emergence action against BRSNW in %” value ([1]; 80 g/ha) was 0%, the “Pre-emergence action against BRSNW in %” value ([1]; 320 g/ha) was 20% and the “Pre-emergence action against GLXMA in %” value [2] was 20%. The “Pre-emergence action against ORYSA in %” value ([3]; 80 g/ha) was 0%, the “Pre-emergence action against ORYSA in %” value ([3]; 320 g/ha) was 0% and the “Pre-emergence action against ZEAMX in %” value ([4]; 80 g/ha) was 0%. The “Pre-emergence action against ZEAMX in %” value ([4]; 320 g/ha) was 10%, the “Post-emergence action against AMARE in %” value [9, 31] was 80% and the “Post-emergence action against LOLRI in %” value [10] was 90%. For the same compound, the “Post-emergence action against PHBPU in %” value ([5]; dosage 320 g/ha) was 80%, the “Post-emergence action against SETVI in %” value ([11]; dosage 320 g/ha) was 80% and the “Post-emergence action against ORYSA in %” value ([6]; 80 g/ha) was 0%. The “Post-emergence action against ORYSA in %” value ([6]; 320 g/ha) was 0%, the “Post-emergence action against TRZAS in %” value [7] was 20% and the “Post-emergence action against ZEAMX in %” value ([8]; 80 g/ha) was 20%. For the same compound, the “Post-emergence action against ZEAMX in %” value ([8]; 320 g/ha) was 20%.

`CCOC(=O)CSc1nn(-c2ccccn2)c(-c2cncc(F)c2)c1Cl` [Example I-183] was tested, and the “Pre-emergence action against ABUTH” value [12] was 80%, the “Pre-emergence action against ALOMY” value [13] was 80% and the “Pre-emergence action against AMARE in %” value ([14]; 80 g/ha) was 80%. For the same compound, the “Pre-emergence action against AMARE in %” value ([14]; 320 g/ha) was 100%, the “Pre-emergence action against AVEFA in %” value [15] was 80% and the “Pre-emergence action against ECHCG in %” value [16] was 100%. For the same compound, the “Pre-emergence action against LOLRI in %” value [17] was 90%, the “Pre-emergence action against MATIN in %” value ([18]; dosage 80 g/ha) was 90% and the “Pre-emergence action against MATIN in %” value ([18]; dosage 320 g/ha) was 90%. For the same compound, the “Pre-emergence action against POLCO in %” value ([19]; dosage 80 g/ha) was 80%, the “Pre-emergence action against POLCO in %” value ([19]; dosage 320 g/ha) was 90% and the “Pre-emergence action against SETVI in %” value [20] was 90%. For the same compound, the “Pre-emergence action against VIOTR in %” value ([21]; 320 g/ha, Viola tricolor) was 100%, the “Pre-emergence action against VIOTR in %” value ([21]; dosage 80 g/ha) was 80% and the “Pre-emergence action against GLXMA in %” value [2] was 0%. The “Pre-emergence action against TRZAS in %” value [22] was 0%, the “Post-emergence action against ABUTH in %” value ([23]; 80 g/ha) was 80% and the “Post-emergence action against ABUTH in %” value ([23]; 320 g/ha) was 80%. For the same compound, the “Post-emergence action against AMARE in %” value ([9]; 80 g/ha, visual rating about 3 weeks after treatment vs untreated controls (100% = plants have died, 0% = like control plants)) was 90%, the “Post-emergence action against AMARE in %” value [9, 31] was 90% and the “Post-emergence action against AVEFA in %” value [24] was 90%. For the same compound, the “Post-emergence action against ECHCG in %” value ([25]; dosage 80 g/ha) was 90%, the “Post-emergence action against ECHCG in %” value ([25]; dosage 320 g/ha) was 90% and the “Post-emergence action against LOLRI in %” value [10] was 90%. For the same compound, the “Post-emergence action against MATIN in %” value ([26]; dosage 80 g/ha) was 80%, the “Post-emergence action against MATIN in %” value ([26]; dosage 320 g/ha) was 80% and the “Post-emergence action against PHBPU in %” value ([5]; dosage 80 g/ha) was 80%. The “Post-emergence action against PHBPU in %” value ([5]; dosage 320 g/ha) was 90%, the “Post-emergence action against POLCO in %” value [27] was 90% and the “Post-emergence action against SETVI in %” value ([11]; dosage 80 g/ha) was 90%. The “Post-emergence action against SETVI in %” value ([11]; dosage 320 g/ha) was 90%, the “Post-emergence action against VERPE in %” value [28] was 90% and the “Post-emergence action against VIOTR in %” value ([29]; 80 g/ha) was 90%. For the same compound, the “Post-emergence action against VIOTR in %” value ([29]; 320 g/ha) was 90%.

With `CCOC(=O)C(C)Oc1nn(-c2ccccn2)c(-c2ccc(F)nc2)c1Br` (racemic) [Example I-58] the “Pre-emergence action against ALOMY” value [13] was 90%, the “Pre-emergence action against AVEFA in %” value [15] was 80% and the “Pre-emergence action against LOLRI in %” value [17] was 80%. For the same compound, the “Pre-emergence action against POLCO in %” value ([19]; dosage 320 g/ha) was 90%, the “Pre-emergence action against VIOTR in %” value ([21]; 320 g/ha, Viola tricolor) was 80% and the “Pre-emergence action against BRSNW in %” value ([1]; 80 g/ha) was 0%. For the same compound, the “Pre-emergence action against GLXMA in %” value [2] was 0%, the “Pre-emergence action against ORYSA in %” value ([3]; 80 g/ha) was 0% and the “Pre-emergence action against ZEAMX in %” value ([4]; 80 g/ha) was 20%. The “Post-emergence action against ALOMY in %” value [30] was 90%, the “Post-emergence action against AVEFA in %” value [24] was 90% and the “Post-emergence action against ECHCG in %” value ([25]; dosage 320 g/ha) was 80%. For the same compound, the “Post-emergence action against LOLRI in %” value [10] was 80%, the “Post-emergence action against PHBPU in %” value ([5]; dosage 320 g/ha) was 80% and the “Post-emergence action against ORYSA in %” value ([6]; 80 g/ha) was 0%. For the same compound, the “Post-emergence action against ZEAMX in %” value ([8]; 80 g/ha) was 20%.
